Literature values as cited in patent US20220296715A1, “METHOD FOR PREVENTING PRECIPITATION OF INJECTABLE SOLUTION CONTAINING p-BORONOPHENYLALANINE” (Stella Pharma Corporation, priority 2019, published 2022).

Conditions: physiological pH

solubility: very poor solubility
Compound: N[C@@H](Cc1ccc(B(O)O)cc1)C(=O)O [p-Boronophenylalanine, p-boronophenylalanine]
